Data published in US12559506B2, “Indazole based compounds and associated methods of use” (Arvinas Operations, Inc., priority 2021, dated 2026).
Read-outs that look alike come from different tables or passages of the source.

Target: T1, LRRK2 (endogenous, HiBit tagged) (Homo sapiens, UniProt Q5S007)
T1 construct: endogenous in cells; host or cells: HEK293 cells with HiBit knock-in at the endogenous LRRK2 locus, stably expressing firefly luciferase
Test: Endogenous LRRK2 degradation assay, endogenous gene C-terminally HiBit-tagged in HEK293 cells (Nano-Glo Dual Luciferase)
Type: cell-based
Method in brief: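 LRRK2-HiBit quantified via Nano-Glo Dual Luciferase in HEK293 knock-in cells co-expressing firefly luciferase, after 24 h exposure to compound (1 μM final top, 1:3, 11 points). Values normalised to DMSO median per plate and curve-fitted; Alamar Blue viability run alongside.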

[1] = endogenous HiBit-tagged LRRK2 in HEK293 cells, 24 hours treatment, read-out: **Endogenous WT Dmax (%)
[2] = endogenous HiBit-tagged LRRK2 in HEK293 cells, 24 hours treatment, read-out: *Endogenous WT DC50
[3] = endogenous HiBit-tagged LRRK2 in HEK293 cells, 24 hours treatment, read-out: Endogenous WT DC50
[4] = endogenous HiBit-tagged LRRK2 in HEK293 cells, 24 hours treatment, read-out: Endogenous WT Dmax

T1 sequence (Q5S007 whole entry): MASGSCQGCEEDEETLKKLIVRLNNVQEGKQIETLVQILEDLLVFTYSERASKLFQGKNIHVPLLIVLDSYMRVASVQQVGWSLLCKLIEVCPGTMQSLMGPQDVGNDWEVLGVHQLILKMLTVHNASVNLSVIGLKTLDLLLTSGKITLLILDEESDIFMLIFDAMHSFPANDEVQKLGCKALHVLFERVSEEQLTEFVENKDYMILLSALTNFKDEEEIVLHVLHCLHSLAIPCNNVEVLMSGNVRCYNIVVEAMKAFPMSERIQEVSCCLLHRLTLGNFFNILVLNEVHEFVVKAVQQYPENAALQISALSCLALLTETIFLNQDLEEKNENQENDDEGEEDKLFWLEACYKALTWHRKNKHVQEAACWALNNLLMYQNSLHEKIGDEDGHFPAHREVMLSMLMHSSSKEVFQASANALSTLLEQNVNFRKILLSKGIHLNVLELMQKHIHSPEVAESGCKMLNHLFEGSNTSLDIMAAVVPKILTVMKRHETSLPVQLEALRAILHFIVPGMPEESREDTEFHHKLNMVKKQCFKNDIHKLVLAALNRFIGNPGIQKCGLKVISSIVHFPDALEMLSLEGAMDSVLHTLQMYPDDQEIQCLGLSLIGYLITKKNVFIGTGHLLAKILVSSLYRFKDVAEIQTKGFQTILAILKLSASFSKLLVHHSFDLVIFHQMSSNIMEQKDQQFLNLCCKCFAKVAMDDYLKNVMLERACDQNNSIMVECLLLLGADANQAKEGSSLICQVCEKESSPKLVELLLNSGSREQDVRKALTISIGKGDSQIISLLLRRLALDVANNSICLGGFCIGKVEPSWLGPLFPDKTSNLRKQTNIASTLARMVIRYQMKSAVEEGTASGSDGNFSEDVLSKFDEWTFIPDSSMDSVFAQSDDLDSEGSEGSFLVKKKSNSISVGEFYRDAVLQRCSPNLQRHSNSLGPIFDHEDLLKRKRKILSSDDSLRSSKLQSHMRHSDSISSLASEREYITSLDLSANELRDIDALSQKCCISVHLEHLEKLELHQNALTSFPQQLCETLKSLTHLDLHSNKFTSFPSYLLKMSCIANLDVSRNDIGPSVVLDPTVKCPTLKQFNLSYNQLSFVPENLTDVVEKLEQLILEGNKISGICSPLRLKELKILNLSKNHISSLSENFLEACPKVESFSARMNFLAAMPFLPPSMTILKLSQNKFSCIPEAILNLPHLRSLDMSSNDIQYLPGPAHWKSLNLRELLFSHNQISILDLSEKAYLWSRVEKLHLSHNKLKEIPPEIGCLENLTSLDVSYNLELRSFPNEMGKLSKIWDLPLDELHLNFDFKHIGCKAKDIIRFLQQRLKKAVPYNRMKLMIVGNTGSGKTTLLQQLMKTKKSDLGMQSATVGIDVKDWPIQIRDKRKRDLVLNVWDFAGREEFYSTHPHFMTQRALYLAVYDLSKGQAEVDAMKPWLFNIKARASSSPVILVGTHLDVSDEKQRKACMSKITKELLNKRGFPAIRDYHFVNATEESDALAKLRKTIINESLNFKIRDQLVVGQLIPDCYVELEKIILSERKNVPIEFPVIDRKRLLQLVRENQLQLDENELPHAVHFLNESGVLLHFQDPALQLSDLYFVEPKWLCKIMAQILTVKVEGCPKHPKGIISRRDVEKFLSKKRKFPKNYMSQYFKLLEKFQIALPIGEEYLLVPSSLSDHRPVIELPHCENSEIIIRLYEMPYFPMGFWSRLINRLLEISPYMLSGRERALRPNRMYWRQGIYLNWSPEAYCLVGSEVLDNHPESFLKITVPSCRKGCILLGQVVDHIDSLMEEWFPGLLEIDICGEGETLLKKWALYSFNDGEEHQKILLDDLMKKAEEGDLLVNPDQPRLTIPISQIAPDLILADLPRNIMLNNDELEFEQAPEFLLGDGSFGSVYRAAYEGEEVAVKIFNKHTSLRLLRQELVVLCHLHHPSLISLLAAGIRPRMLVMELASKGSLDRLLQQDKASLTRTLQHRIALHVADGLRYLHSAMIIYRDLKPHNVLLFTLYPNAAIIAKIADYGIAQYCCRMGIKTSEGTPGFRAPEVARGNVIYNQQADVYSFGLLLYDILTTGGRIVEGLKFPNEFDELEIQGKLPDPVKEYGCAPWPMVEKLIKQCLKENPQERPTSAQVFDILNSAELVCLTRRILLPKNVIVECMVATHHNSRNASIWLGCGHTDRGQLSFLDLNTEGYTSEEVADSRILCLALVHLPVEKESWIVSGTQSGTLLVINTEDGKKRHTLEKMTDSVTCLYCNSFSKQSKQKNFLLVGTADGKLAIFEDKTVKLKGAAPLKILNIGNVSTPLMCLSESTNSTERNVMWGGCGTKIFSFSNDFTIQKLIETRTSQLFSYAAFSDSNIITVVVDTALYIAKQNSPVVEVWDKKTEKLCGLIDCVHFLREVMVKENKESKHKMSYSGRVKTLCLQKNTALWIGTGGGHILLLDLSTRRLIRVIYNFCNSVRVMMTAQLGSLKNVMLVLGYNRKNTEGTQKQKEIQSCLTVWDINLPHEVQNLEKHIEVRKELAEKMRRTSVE

Dmax [1] | DC50 [2] | DC50 [3] | Dmax [4] | SMILES | further results
50 to 70% | < 0.01 µM |  |  | CC1(Oc2cc3c(-c4cc(N5CCC(CN6CCN(CC7CCN(c8ccc9c(c8F)CN(C8CCC(=O)NC8=O)C9=O)CC7)CC6(C)C)CC5)ncn4)n[nH]c3cc2F)CC1 (centres unmarked) [Compound 274, 3-{4-fluoro-5-[4-({4-[(1-{6-[6-fluoro-5-(1-methylcyclopropoxy)-1H-indazol-3-yl]pyrimidin-4-yl}piperidin-4-yl)methyl]-3,3-dimethylpiperazin-1-yl}methyl)piperidin-1-yl]-1-oxo-2,3-dihydro-1H-isoindol-2-yl}piperidine-2,6-dione] | 
 |  | < 0.01 µM | 50 to 70% | COc1c(N2CCN(CC3(F)CCN(CC4CCN(c5cc(-c6n[nH]c7cnc(OC8(C)CC8)cc67)ncn5)CC4)CC3)CC2)ccc2c1CN(C1CCC(=O)NC1=O)C2=O (centres unmarked) [Compound 369, 3-{5-[4-({4-fluoro-1-[(1-{6-[5-(1-methylcyclopropoxy)-1H-pyrazolo[3,4-c]pyridin-3-yl]pyrimidin-4-yl}piperidin-4-yl)methyl]piperidin-4-yl}methyl)piperazin-1-yl]-4-methoxy-1-oxo-2,3-dihydro-1H-isoindol-2-yl}piperidine-2,6-dione] | 
≥ 70% | < 0.01 µM |  |  | CC1(Oc2ccc3n[nH]c(-c4cc(N5CCC(CN6CC(F)(CN7CCN(c8ccc9c(c8F)CN(C8CCC(=O)NC8=O)C9=O)CC7)C6)CC5)ncn4)c3c2)CC1 (centres unmarked) [Compound 301, 3-{4-fluoro-5-[4-({3-fluoro-1-[(1-{6-[5-(1-methylcyclopropoxy)-2H-indazol-3-yl]pyrimidin-4-yl}piperidin-4-yl)methyl]azetidin-3-yl}methyl)piperazin-1-yl]-1-oxo-2,3-dihydro-1H-isoindol-2-yl}piperidine-2,6-dione] | 
 |  |  |  | C[C@H]1CN(c2cc(-c3[nH]nc4ccc(OC5(C)CC5)cc34)ncn2)CCN1CCC1CCN(C(=O)C2CCN(c3ccc4c(c3)C(=O)N(C3CCC(=O)NC3=O)C4=O)CC2)CC1 (stereo partly drawn) [Compound 57, 2-(2,6-dioxopiperidin-3-yl)-5-[4-(4-{2-[(2S)-2-methyl-4-{6-[5-(1-methylcyclopropoxy)-2H-indazol-3-yl]pyrimidin-4-yl}piperazin-1-yl]ethyl}piperidine-1-carbonyl)piperidin-1-yl]-2,3-dihydro-1H-isoindole-1,3-dione] | Dmax (endogenous HiBit-tagged LRRK2 in HEK293 cells, 24 hours, read-out: **Endogenous WT Dmax (%)): ≥ 70%; DC50 (endogenous HiBit-tagged LRRK2 in HEK293 cells, 24 hours, read-out: *Endogenous WT DC50): < 0.01 µM
50 to 70% | < 0.01 µM |  |  | C[C@H]1CN(c2cc(-c3n[nH]c4ccc(OC5(C)CC5)cc34)ncn2)CCN1CCN1CCC2(CN(c3ccc4c(c3F)CN(C3CCC(=O)NC3=O)C4=O)C2)C(F)(F)C1 (stereo partly drawn) [Compound 317, 3-[5-(5,5-difluoro-7-{2-[(2S)-2-methyl-4-{6-[5-(1-methylcyclopropoxy)-1H-indazol-3-yl]pyrimidin-4-yl}piperazin-1-yl]ethyl}-2,7-diazaspiro[3.5]nonan-2-yl)-4-fluoro-1-oxo-2,3-dihydro-1H-isoindol-2-yl]piperidine-2,6-dione] | 
50 to 70% | < 0.01 µM |  |  | CC1(Oc2ccc3n[nH]c(-c4cc(N5CCN(CC6(F)CN(CC7CCN(c8ccc9c(c8F)CN(C8CCC(=O)NC8=O)C9=O)CC7)C6)CC5)ncn4)c3c2)CC1 (centres unmarked) [Compound 306, 3-{4-fluoro-5-[4-({3-fluoro-3-[(4-{6-[5-(1-methylcyclopropoxy)-2H-indazol-3-yl]pyrimidin-4-yl}piperazin-1-yl)methyl]azetidin-1-yl}methyl)piperidin-1-yl]-1-oxo-2,3-dihydro-1H-isoindol-2-yl}piperidine-2,6-dione] | 
 |  | < 0.01 µM | 50 to 70% | CC1(Oc2cc3c(-c4cc(N5CCC(CN6CCN(CC7CCN(c8ccc9c(c8F)CN(C8CCC(=O)NC8=O)C9=O)CC7)CC6(C)C)CC5)ncn4)n[nH]c3cn2)CC1 (centres unmarked) [Compound 247, 3-{5-[4-({3,3-dimethyl-4-[(1-{6-[5-(1-methylcyclopropoxy)-1H-pyrazolo[3,4-c]pyridin-3-yl]pyrimidin-4-yl}piperidin-4-yl)methyl]piperazin-1-yl}methyl)piperidin-1-yl]-4-fluoro-1-oxo-2,3-dihydro-1H-isoindol-2-yl}piperidine-2,6-dione] | 
50 to 70% | < 0.01 µM |  |  | COc1c(N2CCC(CN3CCN(CC4CCN(c5cc(-c6n[nH]c7cnc(OC8(C)CC8)cc67)ncn5)CC4)C(C)(C)C3)CC2)ccc2c1CN(C1CCC(=O)NC1=O)C2=O (centres unmarked) [Compound 338, 3-{5-[4-({3,3-dimethyl-4-[(1-{6-[5-(1-methylcyclopropoxy)-1H-pyrazolo[3,4-c]pyridin-3-yl]pyrimidin-4-yl}piperidin-4-yl)methyl]piperazin-1-yl}methyl)piperidin-1-yl]-4-methoxy-1-oxo-2,3-dihydro-1H-isoindol-2-yl}piperidine-2,6-dione] | 
 |  |  |  | C[C@H]1CN(c2cc(-c3n[nH]c4cc(F)c(OC5(C)CC5)cc34)ncn2)CCN1CC1(F)CCN(CC2CCN(c3ccc4c(c3F)CN(C3CCC(=O)NC3=O)C4=O)CC2)CC1 (stereo partly drawn) [Compound 192, 3-[4-fluoro-5-[4-[[4-fluoro-4-[[(2S)-4-[6-[6-fluoro-5-(1-methylcyclopropoxy)-1H-indazol-3-yl]pyrimidin-4-yl]-2-methyl-piperazin-1-yl]methyl]-1-piperidyl]methyl]-1-piperidyl]-1-oxo-isoindolin-2-yl]piperidine-2,6-dione] | Dmax (endogenous HiBit-tagged LRRK2, HEK293 cells, 24 hours, read-out: **Endogenous WT Dmax (%)): ≥ 70%; DC50 (endogenous HiBit-tagged LRRK2, HEK293 cells, 24 hours, read-out: *Endogenous WT DC50): < 0.01 µM
50 to 70% | < 0.01 µM |  |  | CC1(Oc2cc3c(-c4cc(N5CCN(C[C@H]6CC[C@H](OC7CCN(c8ccc9c(c8F)CN(C8CCC(=O)NC8=O)C9=O)CC7)CC6)CC5)ncn4)n[nH]c3cc2F)CC1 (some centres unmarked) [Compound 260, 3-[4-fluoro-1-oxo-5-(4-{[(1r,4r)-4-[(4-{6-[6-fluoro-5-(1-methylcyclopropoxy)-1H-indazol-3-yl]pyrimidin-4-yl}piperazin-1-yl)methyl]cyclohexyl]oxy}piperidin-1-yl)-2,3-dihydro-1H-isoindol-2-yl]piperidine-2,6-dione] | 
 |  | < 0.01 µM | 50 to 70% | COc1c(N2CC3(CCN(CCOC4CCN(c5cc(-c6n[nH]c7ccc(OC8(C)CC8)cc67)ncn5)CC4)CC3(F)F)C2)ccc2c1CN(C1CCC(=O)NC1=O)C2=O (centres unmarked) [Compound 357, 3-[5-(5,5-difluoro-7-{2-[(1-{6-[5-(1-methylcyclopropoxy)-1H-indazol-3-yl]pyrimidin-4-yl}piperidin-4-yl)oxy]ethyl}-2,7-diazaspiro[3.5]nonan-2-yl)-4-methoxy-1-oxo-2,3-dihydro-1H-isoindol-2-yl]piperidine-2,6-dione] | 
≥ 70% | < 0.01 µM |  |  | C[C@@H]1CN(CC2CCN(c3ccc4c(c3F)CN(C3CCC(=O)NC3=O)C4=O)CC2)CCN1CC1CCN(c2cc(-c3n[nH]c4cnc(OC5(C)CC5)cc34)ncn2)CC1 (stereo partly drawn) [Compound 263, 3-[4-fluoro-5-(4-{[(3R)-3-methyl-4-[(1-{6-[5-(1-methylcyclopropoxy)-1H-pyrazolo[3,4-c]pyridin-3-yl]pyrimidin-4-yl}piperidin-4-yl)methyl]piperazin-1-yl]methyl}piperidin-1-yl)-1-oxo-2,3-dihydro-1H-isoindol-2-yl]piperidine-2,6-dione] | 
 |  | < 0.01 µM | 50 to 70% | CC1(Oc2ccc3[nH]nc(-c4cc(N5CCC(CN6CCN(CC7CCN(c8ccc9c(c8)C(=O)N(C8CCC(=O)NC8=O)C9)CC7)CC6)CC5)ncn4)c3c2)CC1 (centres unmarked) [Compound 241, 3-[6-[4-[[4-[[1-[6-[5-(1-methylcyclopropoxy)-1H-indazol-3-yl]pyrimidin-4-yl]-4-piperidyl]methyl]piperazin-1-yl]methyl]-1-piperidyl]-1-oxo-isoindolin-2-yl]piperidine-2,6-dione] | 
